Data as given in US20230234962A1, “OXA-AZASPIRO DERIVATIVE, AND PREPARATION METHOD THEREFOR AND PHARMACEUTICAL USE THEREOF” (priority 2020, published 2023).
Where two headings read alike, the source gives them in different places.

Experiments:
Type in all cases: biochemical
PI3Kδ enzyme = PI3Kδ enzyme (Homo sapiens, UniProt O00329); experiment: ADP-Glo kinase assay, inhibition of PI3Kδ enzyme
Procedure: (§1) In this experiment, an ADP-Glo™ kinase assay kit is used. A substrate is phosphorylated under the action of enzyme, and ADP is generated at the same time. An ADP-Glo Reagent is added to remove unreacted ATP in the reaction system, and the ADP generated by the reaction is detected by a kinase detection reagent. In the presence of a compound, the inhibition rate of the compound is calculated by measuring the signal value.
(§2) Test compounds were each subjected to 3-fold dilution from a starting concentration of 10000 nM to obtain 11 concentrations, and duplicate wells were set for the test. Gradient dilution to a corresponding 100-fold final concentration in a 384-well plate was performed to obtain solutions with 11 different concentrations. 50 nL of each solution was transferred to compound wells of a 384-well plate with Echo; negative control wells were added with 50 nL of DMSO. A kinase solution with a 2-fold final concentration was prepared using 1×kinase buffer. 2.5 μL of the kinase solution with a 2-fold final concentration was added to the compound wells; 2.5 μL of the 1× kinase buffer was added to the negative control wells. The mixture was centrifuged at 1000 rpm for 30 s, mixed well by shaking, and then incubated at room temperature for 10 min. A mixed solution of ATP and substrate P1P2 with a 2-fold final concentration was prepared using 1× kinase buffer. The reaction was initiated by adding 2.5 μL of the mixed solution of ATP and substrate with a 2-fold final concentration. The mixture in the 384-well plate was centrifuged at 1000 rpm for 30 s, mixed well by shaking, and then reacted at room temperature for 120 min. 5 μL of ADP-Glo reagent was added, and the mixture was centrifuged at 1000 rpm for 30 s, mixed well by shaking, and then incubated at room temperature for 40 min. 10 μL of kinase detection reagent was added, and the resulting mixture was centrifuged at 1000 rpm for 30 s, mixed well by shaking, and then incubated at room temperature for 30 min. The luminescence RLU was read with an Envision microplate reader.
(§3) IC50 values for the inhibitory activity of the compounds were calculated using Graphpad Prism software.

PI3Kα enzyme = PI3Kα enzyme (Homo sapiens, UniProt P42336); experiment: ADP-Glo kinase assay, selectivity, PI3Kα enzyme; conditions: 11 concentrations from 10000 nM
Procedure: as §1, §2, §3

PI3Kβ enzyme = PI3Kβ enzyme (Homo sapiens, UniProt P42338); experiment: ADP-Glo kinase assay, selectivity, PI3Kβ enzyme; conditions: 11 concentrations from 10000 nM
Procedure: as §1, §2, §3

PI3Kγ enzyme = PI3Kγ enzyme (Homo sapiens, UniProt P48736); experiment: ADP-Glo kinase assay, selectivity, PI3Kγ enzyme; conditions: 11 concentrations from 10000 nM
Procedure: as §1, §2, §3

[1] = ADP-Glo, PIK3CD/PIK3R1, 11 concentrations from 10000 nM, read-out: PI3Kδ enzyme IC50

Chain of PI3Kγ enzyme (P48736 whole entry): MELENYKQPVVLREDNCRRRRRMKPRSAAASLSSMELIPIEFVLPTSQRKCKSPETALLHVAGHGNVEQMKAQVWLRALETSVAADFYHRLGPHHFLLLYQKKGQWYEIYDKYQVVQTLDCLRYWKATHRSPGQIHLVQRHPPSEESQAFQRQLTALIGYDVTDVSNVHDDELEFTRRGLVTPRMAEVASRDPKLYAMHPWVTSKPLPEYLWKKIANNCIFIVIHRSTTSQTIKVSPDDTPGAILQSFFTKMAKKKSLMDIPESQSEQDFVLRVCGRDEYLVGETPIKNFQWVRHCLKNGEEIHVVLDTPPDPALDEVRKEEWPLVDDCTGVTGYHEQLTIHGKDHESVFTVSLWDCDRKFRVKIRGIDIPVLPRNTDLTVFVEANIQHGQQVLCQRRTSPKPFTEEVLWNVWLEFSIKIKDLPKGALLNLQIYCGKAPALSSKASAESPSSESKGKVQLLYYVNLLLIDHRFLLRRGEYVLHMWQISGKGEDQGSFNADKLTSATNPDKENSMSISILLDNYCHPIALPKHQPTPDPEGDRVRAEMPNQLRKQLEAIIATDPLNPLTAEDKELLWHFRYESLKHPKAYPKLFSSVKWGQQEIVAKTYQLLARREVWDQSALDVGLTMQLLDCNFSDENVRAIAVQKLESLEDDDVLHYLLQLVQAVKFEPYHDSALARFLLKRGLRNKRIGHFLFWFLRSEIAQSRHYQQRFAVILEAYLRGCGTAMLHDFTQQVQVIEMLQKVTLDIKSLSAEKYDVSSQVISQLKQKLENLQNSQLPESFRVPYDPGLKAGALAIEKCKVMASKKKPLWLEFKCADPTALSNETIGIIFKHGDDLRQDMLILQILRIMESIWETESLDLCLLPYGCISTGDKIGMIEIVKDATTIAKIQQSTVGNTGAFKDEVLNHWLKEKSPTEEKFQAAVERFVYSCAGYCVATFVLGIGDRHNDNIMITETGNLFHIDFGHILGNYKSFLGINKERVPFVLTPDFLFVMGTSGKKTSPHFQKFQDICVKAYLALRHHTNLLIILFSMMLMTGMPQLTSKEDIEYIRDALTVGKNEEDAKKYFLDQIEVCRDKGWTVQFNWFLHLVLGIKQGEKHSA
Chain of PI3Kδ enzyme (O00329 whole entry): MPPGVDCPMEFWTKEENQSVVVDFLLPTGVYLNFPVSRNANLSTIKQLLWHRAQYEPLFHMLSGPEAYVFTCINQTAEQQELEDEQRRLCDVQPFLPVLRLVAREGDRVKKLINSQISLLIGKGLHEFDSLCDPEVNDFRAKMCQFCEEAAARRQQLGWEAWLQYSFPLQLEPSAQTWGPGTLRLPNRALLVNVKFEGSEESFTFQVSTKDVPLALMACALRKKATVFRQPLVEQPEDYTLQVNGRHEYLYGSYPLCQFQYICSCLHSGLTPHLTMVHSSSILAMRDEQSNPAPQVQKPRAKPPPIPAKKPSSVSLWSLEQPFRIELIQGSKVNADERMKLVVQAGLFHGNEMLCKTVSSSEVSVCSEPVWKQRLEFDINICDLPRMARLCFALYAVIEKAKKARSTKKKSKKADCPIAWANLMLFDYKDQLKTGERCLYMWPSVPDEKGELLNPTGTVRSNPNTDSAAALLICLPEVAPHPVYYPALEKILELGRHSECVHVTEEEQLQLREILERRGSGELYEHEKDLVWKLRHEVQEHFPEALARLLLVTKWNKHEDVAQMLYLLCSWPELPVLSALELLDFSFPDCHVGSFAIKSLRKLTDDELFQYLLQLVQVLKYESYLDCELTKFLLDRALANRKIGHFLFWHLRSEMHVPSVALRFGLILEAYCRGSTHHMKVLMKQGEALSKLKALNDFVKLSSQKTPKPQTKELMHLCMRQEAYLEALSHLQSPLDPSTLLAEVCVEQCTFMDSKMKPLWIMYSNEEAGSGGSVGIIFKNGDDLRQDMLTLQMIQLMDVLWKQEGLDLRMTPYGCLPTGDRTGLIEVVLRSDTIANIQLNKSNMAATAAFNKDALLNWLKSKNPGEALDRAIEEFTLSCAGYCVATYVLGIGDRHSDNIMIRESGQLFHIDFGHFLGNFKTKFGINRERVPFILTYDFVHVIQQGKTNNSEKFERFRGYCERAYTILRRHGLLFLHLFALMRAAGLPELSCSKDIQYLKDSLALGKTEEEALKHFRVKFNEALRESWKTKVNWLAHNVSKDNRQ
Chain of PI3Kδ enzyme (P27986 whole entry partner): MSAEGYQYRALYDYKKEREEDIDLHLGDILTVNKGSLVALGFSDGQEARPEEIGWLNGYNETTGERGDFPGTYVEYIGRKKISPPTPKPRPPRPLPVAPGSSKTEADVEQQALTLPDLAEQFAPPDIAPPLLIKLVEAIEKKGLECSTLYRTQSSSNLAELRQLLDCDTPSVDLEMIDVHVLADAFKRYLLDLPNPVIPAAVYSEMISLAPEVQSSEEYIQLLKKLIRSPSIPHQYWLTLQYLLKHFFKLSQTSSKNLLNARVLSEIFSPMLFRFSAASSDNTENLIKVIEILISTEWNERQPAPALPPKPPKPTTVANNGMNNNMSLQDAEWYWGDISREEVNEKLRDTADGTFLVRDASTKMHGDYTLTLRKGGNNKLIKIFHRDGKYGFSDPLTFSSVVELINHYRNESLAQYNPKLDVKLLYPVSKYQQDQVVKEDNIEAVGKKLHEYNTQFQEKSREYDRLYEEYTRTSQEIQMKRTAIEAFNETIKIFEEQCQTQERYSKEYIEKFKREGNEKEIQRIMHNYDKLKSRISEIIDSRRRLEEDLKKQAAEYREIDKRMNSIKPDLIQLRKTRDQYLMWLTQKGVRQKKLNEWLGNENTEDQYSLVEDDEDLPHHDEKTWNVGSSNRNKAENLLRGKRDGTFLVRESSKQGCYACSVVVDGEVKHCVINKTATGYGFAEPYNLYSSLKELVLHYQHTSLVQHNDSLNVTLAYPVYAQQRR
Chain of PI3Kα enzyme (P42336 whole entry): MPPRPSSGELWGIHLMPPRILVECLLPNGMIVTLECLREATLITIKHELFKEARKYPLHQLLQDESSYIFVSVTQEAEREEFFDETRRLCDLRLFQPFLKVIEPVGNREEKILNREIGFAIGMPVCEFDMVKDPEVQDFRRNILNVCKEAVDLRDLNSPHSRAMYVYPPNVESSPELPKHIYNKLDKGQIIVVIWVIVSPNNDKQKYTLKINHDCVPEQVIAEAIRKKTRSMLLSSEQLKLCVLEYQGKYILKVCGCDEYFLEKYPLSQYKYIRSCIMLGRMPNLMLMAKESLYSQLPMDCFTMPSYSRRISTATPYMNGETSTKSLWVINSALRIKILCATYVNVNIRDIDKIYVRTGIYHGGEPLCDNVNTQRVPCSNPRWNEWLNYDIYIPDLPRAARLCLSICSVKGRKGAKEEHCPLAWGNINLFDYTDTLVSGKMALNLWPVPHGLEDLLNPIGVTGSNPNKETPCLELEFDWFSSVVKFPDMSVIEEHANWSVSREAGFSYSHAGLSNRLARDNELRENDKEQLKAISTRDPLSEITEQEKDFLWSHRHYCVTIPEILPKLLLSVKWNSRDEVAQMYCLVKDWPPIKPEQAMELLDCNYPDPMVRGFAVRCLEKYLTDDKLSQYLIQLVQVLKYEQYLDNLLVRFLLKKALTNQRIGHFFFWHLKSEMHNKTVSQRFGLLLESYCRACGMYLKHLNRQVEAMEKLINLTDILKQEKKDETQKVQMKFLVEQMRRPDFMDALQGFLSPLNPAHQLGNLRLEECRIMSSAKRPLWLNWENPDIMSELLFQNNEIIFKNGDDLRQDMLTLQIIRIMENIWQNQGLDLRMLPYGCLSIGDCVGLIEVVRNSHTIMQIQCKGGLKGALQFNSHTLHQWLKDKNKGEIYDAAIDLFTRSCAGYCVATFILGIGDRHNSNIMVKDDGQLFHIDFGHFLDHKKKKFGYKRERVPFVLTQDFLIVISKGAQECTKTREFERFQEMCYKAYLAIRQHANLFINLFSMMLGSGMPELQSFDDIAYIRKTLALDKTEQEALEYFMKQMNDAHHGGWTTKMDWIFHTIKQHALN
Chain of PI3Kα enzyme (P27986 whole entry, further chain): as the sequence (P27986 whole entry partner) above
Chain of PI3Kβ enzyme (P27986 whole entry): as the sequence (P27986 whole entry partner) above
Chain of PI3Kβ enzyme (P42338 whole entry): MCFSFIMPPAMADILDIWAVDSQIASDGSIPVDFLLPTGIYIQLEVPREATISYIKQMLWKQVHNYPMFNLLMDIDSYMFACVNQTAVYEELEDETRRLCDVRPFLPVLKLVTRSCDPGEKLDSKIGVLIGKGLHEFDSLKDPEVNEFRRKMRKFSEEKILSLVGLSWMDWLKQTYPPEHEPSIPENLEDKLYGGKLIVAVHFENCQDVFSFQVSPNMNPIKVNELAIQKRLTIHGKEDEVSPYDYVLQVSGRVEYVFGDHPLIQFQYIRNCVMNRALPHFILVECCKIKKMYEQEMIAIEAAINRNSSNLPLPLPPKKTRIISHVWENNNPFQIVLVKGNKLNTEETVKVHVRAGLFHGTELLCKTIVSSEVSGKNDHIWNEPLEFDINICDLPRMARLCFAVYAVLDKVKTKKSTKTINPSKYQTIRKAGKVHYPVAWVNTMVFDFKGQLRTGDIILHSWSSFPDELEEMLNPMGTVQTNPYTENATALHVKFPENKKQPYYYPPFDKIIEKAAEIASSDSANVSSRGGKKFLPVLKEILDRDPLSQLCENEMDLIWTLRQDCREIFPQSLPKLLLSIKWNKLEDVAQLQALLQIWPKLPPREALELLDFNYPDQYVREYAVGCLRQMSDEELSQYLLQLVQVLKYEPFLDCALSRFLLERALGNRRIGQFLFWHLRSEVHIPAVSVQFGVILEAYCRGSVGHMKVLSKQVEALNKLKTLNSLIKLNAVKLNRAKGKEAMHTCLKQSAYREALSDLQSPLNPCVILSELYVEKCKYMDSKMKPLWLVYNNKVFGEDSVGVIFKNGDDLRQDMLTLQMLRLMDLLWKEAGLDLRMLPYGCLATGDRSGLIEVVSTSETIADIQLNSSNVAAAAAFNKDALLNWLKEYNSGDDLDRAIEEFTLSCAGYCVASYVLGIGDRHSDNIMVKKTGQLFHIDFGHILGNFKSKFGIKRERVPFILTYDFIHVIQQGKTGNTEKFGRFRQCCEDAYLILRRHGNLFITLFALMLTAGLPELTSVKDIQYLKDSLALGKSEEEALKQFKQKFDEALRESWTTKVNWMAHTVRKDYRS

**Q.** `O=C(c1nn(-c2ccc(CN3CCOCC3)cc2)c2c1CS(=O)(=O)c1c(F)cccc1-2)N1CCOCC12CC2` [Control Example 10, (6-fluoro-1-(4-(morpholinomethyl)phenyl)-5,5-dioxido-1,4-dihydrothiochromeno[4,3-c]pyrazol-3-yl)(7-oxa-4-azaspiro[2.5]octan-4-yl)methanone, reference compound] was tested. Which IC50 (PI3Kδ enzyme) did it give?
**A.** > 10 µM

**Q.** How did the IC50 (PI3Kδ enzyme) turn out when `O=C(c1nn(-c2ccc(CN3CCOCC3)cc2)c2c1CS(=O)(=O)c1c(F)cccc1-2)N1CCOC2(CC2)C1` [Example 1, (6-fluoro-1-(4-(morpholinomethyl)phenyl)-5,5-dioxido-1,4-dihydrothiochromeno[4,3-c]pyrazol-3-yl)(4-oxa-7-azaspiro[2.5]octan-7-yl)methanone] was run?
**A.** 0.013 µM

**Q.** What about the IC50 (PI3Kα enzyme) of the same compound?
**A.** 0.468 µM

**Q.** What about the IC50 (PI3Kβ enzyme) of the same compound?
**A.** 1.32 µM

**Q.** And the IC50 (PI3Kγ enzyme)?
**A.** 6.21 µM

**Q.** `O=C(c1nn(-c2ccc(CN3CCOCC3)cc2)c2c1CS(=O)(=O)c1c(Cl)cccc1-2)N1CCOC2(CC2)C1` [Example 2, (6-chloro-1-(4-(morpholinomethyl)phenyl)-5,5-dioxido-1,4-dihydrothiochromeno[4,3-c]pyrazol-3-yl)(4-oxa-7-azaspiro[2.5]octan-7-yl)methanone] was tested. Which IC50 (PI3Kδ enzyme; [1]) did it give?
**A.** 0.0184 µM

**Q.** `COc1cccc2c1-c1c(c(C(=O)N3CCOC4(CC4)C3)nn1-c1ccc(CN3CCOCC3)cc1)CS2(=O)=O` [Example 3, (9-methoxy-1-(4-(morpholinomethyl)phenyl)-5,5-dioxido-1,4-dihydrothiochromeno[4,3-c]pyrazol-3-yl)(4-oxa-7-azaspiro[2.5]octan-7-yl)methanone] was tested. Which IC50 (PI3Kδ enzyme; [1]) did it give?
**A.** 0.0056 µM

**Q.** How did the IC50 (PI3Kδ enzyme; [1]) turn out when `COc1ccc2c(c1)S(=O)(=O)Cc1c(C(=O)N3CCOC4(CC4)C3)nn(-c3ccc(CN4CCOCC4)cc3)c1-2` [Example 4, (7-methoxy-1-(4-(morpholinomethyl)phenyl)-5,5-dioxido-1,4-dihydrothiochromeno[4,3-c]pyrazol-3-yl)(4-oxa-7-azaspiro[2.5]octan-7-yl)methanone] was run?
**A.** 0.0079 µM

**Q.** `COc1cccc2c1S(=O)(=O)Cc1c(C(=O)N3CCOC4(CC4)C3)nn(-c3ccc(CN4CCOCC4)cc3)c1-2` [Example 5, (6-methoxy-1-(4-(morpholinomethyl)phenyl)-5,5-dioxido-1,4-dihydrothiochromeno[4,3-c]pyrazol-3-yl)(4-oxa-7-azaspiro[2.5]octan-7-yl)methanone] was tested. Which IC50 (PI3Kδ enzyme) did it give?
**A.** 0.019 µM

**Q.** What about the IC50 (PI3Kα enzyme) of the same compound?
**A.** 2.33 µM

**Q.** And the IC50 (PI3Kβ enzyme)?
**A.** 2.79 µM

**Q.** And the IC50 (PI3Kγ enzyme)?
**A.** > 10 µM

**Q.** `Cc1cccc2c1S(=O)(=O)Cc1c(C(=O)N3CCOC4(CC4)C3)nn(-c3ccc(CN4CCOCC4)cc3)c1-2` [Example 6, (6-methyl-1-(4-(morpholinomethyl)phenyl)-5,5-dioxido-1,4-dihydrothiochromeno[4,3-c]pyrazol-3-yl)(4-oxa-7-azaspiro[2.5]octan-7-yl)methanone] was tested. Which IC50 (PI3Kδ enzyme) did it give?
**A.** 0.068 µM

**Q.** What about the IC50 (PI3Kα enzyme) of the same compound?
**A.** 2.57 µM

**Q.** What about the IC50 (PI3Kβ enzyme) of the same compound?
**A.** 7.06 µM

**Q.** And the IC50 (PI3Kγ enzyme)?
**A.** > 10 µM

**Q.** `O=C(c1nn(-c2ccc(CN3CCOCC3)cc2)c2c1CS(=O)(=O)c1cc(Cl)ccc1-2)N1CCOC2(CC2)C1` [Example 7, (7-chloro-1-(4-(morpholinomethyl)phenyl)-5,5-dioxido-1,4-dihydrothiochromeno[4,3-c]pyrazol-3-yl)(4-oxa-7-azaspiro[2.5]octan-7-yl)methanone] was tested. Which IC50 (PI3Kδ enzyme) did it give?
**A.** 0.0265 µM

**Q.** And the IC50 (PI3Kα enzyme)?
**A.** 1.52 µM

**Q.** And the IC50 (PI3Kβ enzyme)?
**A.** 1.74 µM

**Q.** What about the IC50 (PI3Kγ enzyme) of the same compound?
**A.** > 10 µM

**Q.** Which IC50 (PI3Kδ enzyme) does the source give for `Cc1ccc2c(c1)S(=O)(=O)Cc1c(C(=O)N3CCOC4(CC4)C3)nn(-c3ccc(CN4CCOCC4)cc3)c1-2` [Example 9, (7-methyl-1-(4-(morpholinomethyl)phenyl)-5,5-dioxido-1,4-dihydrothiochromeno[4,3-c]pyrazol-3-yl)(4-oxa-7-azaspiro[2.5]octan-7-yl)methanone] here?
**A.** 0.025 µM

**Q.** What about the IC50 (PI3Kα enzyme) of the same compound?
**A.** 1.76 µM

**Q.** And the IC50 (PI3Kβ enzyme)?
**A.** 1.55 µM

**Q.** And the IC50 (PI3Kγ enzyme)?
**A.** > 10 µM

**Q.** How did the IC50 (PI3Kδ enzyme) turn out when `O=C(c1nn(-c2ccc(CN3CCOCC3)cc2)c2c1CS(=O)(=O)c1c-2ccc(Cl)c1F)N1CCOC2(CC2)C1` [Example 11, (7-chloro-6-fluoro-1-(4-(morpholinomethyl)phenyl)-5,5-dioxido-1,4-dihydrothiochromeno[4,3-c]pyrazol-3-yl)(4-oxa-7-azaspiro[2.5]octan-7-yl)methanone] was run?
**A.** 0.0105 µM

**Q.** What about the IC50 (PI3Kα enzyme) of the same compound?
**A.** 0.441 µM

**Q.** What about the IC50 (PI3Kβ enzyme) of the same compound?
**A.** 0.736 µM

**Q.** What about the IC50 (PI3Kγ enzyme) of the same compound?
**A.** 8.92 µM

**Q.** With `Cc1cccc2c1-c1c(c(C(=O)N3CCOC4(CC4)C3)nn1-c1ccc(CN3CCOCC3)cc1)CS2(=O)=O` [Example 12, (9-methyl-1-(4-(morpholinomethyl)phenyl)-5,5-dioxido-1,4-dihydrothiochromeno[4,3-c]pyrazol-3-yl)(4-oxa-7-azaspiro[2.5]octan-7-yl)methanone] as the compound, how does the IC50 (PI3Kδ enzyme; [1]) read?
**A.** 0.0058 µM
